Laboratory results: PMC3914206

Columns and labels:
[1] = target: T1, panel of 442 kinases (Homo sapiens, UniProt Q56UN5); assay type: binding; conditions: kinase YSK4; compound concentration 10 µM
T1 construct: purchased KINOMEscan
T1 sequence (Q56UN5 1-1328): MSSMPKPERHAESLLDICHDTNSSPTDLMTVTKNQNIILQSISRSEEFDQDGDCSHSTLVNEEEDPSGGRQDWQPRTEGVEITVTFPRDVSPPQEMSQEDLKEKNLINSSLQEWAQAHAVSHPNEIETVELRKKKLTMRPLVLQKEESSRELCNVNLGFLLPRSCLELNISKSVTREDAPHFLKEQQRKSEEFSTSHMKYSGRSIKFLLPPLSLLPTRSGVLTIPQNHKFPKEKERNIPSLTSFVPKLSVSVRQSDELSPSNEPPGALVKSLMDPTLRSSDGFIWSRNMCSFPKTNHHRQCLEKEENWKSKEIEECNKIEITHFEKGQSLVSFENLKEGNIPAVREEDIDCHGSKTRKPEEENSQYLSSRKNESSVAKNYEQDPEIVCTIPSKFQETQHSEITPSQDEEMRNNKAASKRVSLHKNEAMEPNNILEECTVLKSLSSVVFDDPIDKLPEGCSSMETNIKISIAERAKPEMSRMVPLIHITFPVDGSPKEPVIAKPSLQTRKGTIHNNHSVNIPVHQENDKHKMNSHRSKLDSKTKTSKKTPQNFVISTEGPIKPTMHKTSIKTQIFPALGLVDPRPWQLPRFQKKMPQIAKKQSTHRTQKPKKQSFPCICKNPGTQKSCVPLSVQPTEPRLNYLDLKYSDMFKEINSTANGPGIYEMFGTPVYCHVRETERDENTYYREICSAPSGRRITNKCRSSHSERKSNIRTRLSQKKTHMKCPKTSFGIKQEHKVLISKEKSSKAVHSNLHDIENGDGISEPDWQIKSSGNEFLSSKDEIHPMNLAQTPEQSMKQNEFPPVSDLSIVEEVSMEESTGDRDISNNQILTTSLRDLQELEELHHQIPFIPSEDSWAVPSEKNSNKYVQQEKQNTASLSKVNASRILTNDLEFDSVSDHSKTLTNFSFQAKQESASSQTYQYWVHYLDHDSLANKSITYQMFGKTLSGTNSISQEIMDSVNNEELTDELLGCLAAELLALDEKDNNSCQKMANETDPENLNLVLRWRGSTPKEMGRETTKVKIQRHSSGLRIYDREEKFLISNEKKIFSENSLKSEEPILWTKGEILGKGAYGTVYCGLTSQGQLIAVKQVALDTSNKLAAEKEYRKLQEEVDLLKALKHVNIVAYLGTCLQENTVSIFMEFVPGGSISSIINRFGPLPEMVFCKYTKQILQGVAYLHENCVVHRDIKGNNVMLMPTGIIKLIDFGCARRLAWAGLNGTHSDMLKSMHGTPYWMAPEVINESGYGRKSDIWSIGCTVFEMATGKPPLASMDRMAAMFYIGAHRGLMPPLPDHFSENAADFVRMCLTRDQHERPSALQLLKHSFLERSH
Text: (§1) We assessed the selectivity of members of this scaffold using the KINOMEscan methodology across a near comprehensive panel of 442 kinases [[18,27]].

[2] = target: T2, panel of 442 kinases (Homo sapiens, UniProt O94768); assay type: binding; conditions: Compound Concentration 10 µM
T2 construct: purchased KINOMEscan
T2 sequence (O94768 1-372): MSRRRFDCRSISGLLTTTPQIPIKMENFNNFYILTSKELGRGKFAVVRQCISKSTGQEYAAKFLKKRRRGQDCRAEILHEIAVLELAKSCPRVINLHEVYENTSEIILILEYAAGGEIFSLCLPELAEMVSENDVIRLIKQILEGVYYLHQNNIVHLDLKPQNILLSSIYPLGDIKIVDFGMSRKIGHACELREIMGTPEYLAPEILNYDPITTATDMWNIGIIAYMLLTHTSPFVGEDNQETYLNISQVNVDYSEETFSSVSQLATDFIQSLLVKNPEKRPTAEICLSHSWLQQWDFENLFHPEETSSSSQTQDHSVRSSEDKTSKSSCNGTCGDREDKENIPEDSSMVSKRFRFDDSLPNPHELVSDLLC
Text: as §1

| Structure (SMILES) | % Ctrl, YSK4 [1] [% Ctrl] | KINOMEscan: DRAK2 [2] |
| --- | --- | --- |
| COc1cc(C(=O)N2CCC(N3CCN(C)CC3)CC2)ccc1Nc1ncc2c(n1)N1CCc3cccc(c31)C(=O)N2C [Compound 24] | 24 | – |
| CCOc1cc(C(=O)N2CCC(N3CCN(C)CC3)CC2)ccc1Nc1ncc2c(n1)N(C1CCCC1)c1ccccc1C(=O)N2C [Compound 26] | 100 | 100 |
| COc1cc(C(=O)N2CCC(N3CCN(C)CC3)CC2)ccc1Nc1ncc2c(n1)N(C1CCCC1)c1ccccc1C(=O)N2C [Compound 25, 11-cyclopentyl-2-((2-methoxy-4-(4-(4-methylpiperazin-1-yl)piperidine-1-carbonyl)phenyl)amino)-5-methyl-5H-benzo[e]pyrimido[5,4-b][1,4]diazepin-6(11H)-one] | 100 | 100 |
| COc1cc(C(=O)N2CCC(N3CCN(C)CC3)CC2)ccc1Nc1ncc2c(n1)N(C)c1ccccc1C(=O)N2C [15 (LRRK2-IN-1)] | 99 | 93 |
